Among the data in patent US10858347B2, “Multicyclic compounds and uses thereof” (Karyopharm Therapeutics Inc., priority 2015, dated 2020) are IC50 values, retold here.

Where two headings read alike, the source gives them in different places.

One assay concerns Z138 cells. The assay can be described thus: MTT cell proliferation assay, Z138 cells. The assay is classed as cell-based, human. The settings on record: Z138 cells (mature B-cell acute lymphoblastic leukemia cell line), approximately 64-72 hours incubation. How it is done:
(§1) The MTT cell proliferation assay was used to study the cytotoxic properties of the compounds. The assay was performed according to the method described by Roche Molecular Biochemicals, with minor modifications. The assay is based on the cleavage of the tetrazolium salt, MTT, in the presence of an electron-coupling reagent. The water-insoluble formazan salt produced must be solubilized in an additional step. Cells grown in a 96-well tissue culture plate were incubated with the MTT solution for approximately 4 hours. After this incubation period, a water-insoluble formazan dye formed. After solubilization, the formazan dye was quantitated using a scanning multi-well spectrophotometer (ELISA reader). […] The cells were seeded at 5,000-10,000 cells in each well of 96-well plate in 100 μL of fresh culture medium and were allowed to attach overnight. The stock solutions of the compounds were diluted in 100 μL cell culture medium to obtain eight concentrations of each test compound, ranging from 1 nM to 30 μM. […] All optical densities were measured at 490 nm using a Vmax Kinetic Microplate Reader (Molecular Devices). In most cases, the assay was performed in duplicate and the results were presented as a mean percent inhibition to the negative control±SE. The following formula was used to calculate the percent of inhibition: Inhibition (%)=(1−(ODo/OD))×100.
(§2) The compounds were tested against MS751, Z138 and 3T3 cells. The MS751 cell line is derived from a metastasis to lymph node of human cervix from a patient diagnosed with squameous cell carcinoma of the cervix. The Z138 cell line is a mature B-cell acute lymphoblastic leukemia cell line derived from a patient with chronic lumphocytic leukemia. 3T3 cells are standard fibroblast cells; they were originally isolated from Swiss mouse embryo tissue.

The test system of another assay is 3T3 cells. The assay is described as follows: MTT cell proliferation assay, 3T3 cells. The class given is cell-based. The settings on record: 3T3 cells (standard fibroblast cells, Swiss mouse embryo), approximately 64-72 hours incubation. How it is done: as §1, §2
(Tetrazolium assays rely on reduction of a dye to a coloured formazan, in cell work by metabolically active cells.)

For the next assay, the system named is MS751 cells. The assay can be described thus: MTT cell proliferation assay, MS751 cells. The assay is classed as cell-based. The settings on record: MS751 cells (human cervix squamous cell carcinoma, lymph node metastasis); approximately 64-72 hours incubation. The method, then:
as §1, §2

On to “1-((6-aminopyridin- 3-yl)methyl)-3-(2-((4- (4,4-difluoropiperidine- 1-carbonyl)-4″- fluoro-[1,1′:3′,1″- terphenyl]-4′- yl)oxy)ethyl)urea [Compound 124]”, for which the IC50 in the assay on Z138 cells (read-out: Z-138 MTT (IC50; μM)) is under 0.1 µM; in the assay on 3T3 cells, over 10 µM.
In the case of `Nc1ccc(CNC(=O)NCc2cc3cc(-c4ccc(C(=O)N5CCC(F)(F)CC5)cc4)cc(-c4ccc(F)cc4)c3o2)cn1` [Compound 100, 1-((6-aminopyridin-3-yl)methyl)-3-((5-(4-(4,4-difluoropiperidine-1-carbonyl)phenyl)-7-(4-fluorophenyl)benzofuran-2-yl)methyl)urea], the IC50 in the assay on MS751 cells is under 0.1 µM; with Z138 cells (Homo sapiens, Z-138), under 0.1 µM; in the assay with 3T3 cells (NIH3T3) it was 0.1 to 5 µM.
`Nc1ccc(NC(=O)NCc2cc3cc(-c4ccc(C(=O)N5CCC(F)(F)CC5)cc4)cc(-c4ccc(F)cc4)c3o2)cn1` [Compound 101, 1-(6-aminopyridin-3-yl)-3-((5-(4-(4,4-difluoropiperidine-1-carbonyl)phenyl)-7-(4-fluorophenyl)benzofuran-2-yl)methyl)urea]: the IC50 was 0.1 to 5 µM in the assay with MS751 cells; 0.1 to 5 µM in the assay on Z138 cells (Homo sapiens, Z-138); over 10 µM in the assay with 3T3 cells (NIH3T3).
As to `O=C(NCc1cc2cc(-c3ccc(C(=O)N4CCC(F)(F)CC4)cc3)cc(-c3ccc(F)cc3)c2o1)N1Cc2ccncc2C1` [Compound 102, N-((5-(4-(4,4-difluoropiperidine-1-carbonyl)phenyl)-7-(4-fluorophenyl)benzofuran-2-yl)methyl)-1H-pyrrolo[3,4-c]pyridine-2(3H)-carboxamide], the IC50 in the assay with MS751 cells is under 0.1 µM; in the assay on Z138 cells (Homo sapiens, Z-138), under 0.1 µM; with 3T3 cells (NIH3T3), 0.1 to 5 µM.
`O=C(NCc1cccnc1)NCc1cc2cc(-c3ccc(C(=O)N4CCC(F)(F)CC4)cc3)cc(-c3ccc(F)cc3)c2o1` [Compound 104, 1-((5-(4-(4,4-difluoropiperidine-1-carbonyl)phenyl)-7-(4-fluorophenyl)benzofuran-2-yl)methyl)-3-(pyridin-3-ylmethyl)urea]: the IC50 in the assay with Z138 cells (Homo sapiens, Z-138) is under 0.1 µM; in the assay on 3T3 cells (NIH3T3), 0.1 to 5 µM.
For `O=C(NCc1cc2cc(-c3ccc(C(=O)N4CCC(F)(F)CC4)cc3)cc(C(F)(F)F)c2o1)N1Cc2ccncc2C1` [Compound 105, N-((5-(4-(4,4-difluoropiperidine-1-carbonyl)phenyl)-7-(trifluoromethyl)benzofuran-2-yl)methyl)-1H-pyrrolo[3,4-c]pyridine-2(3H)-carboxamide], in that order: 0.1 to 5 µM and over 10 µM.
In the same order, the values of `O=C(NCc1cc2cc(-c3ccc(C(=O)N4CC(F)(F)C4)cc3)cc(C(F)(F)F)c2o1)N1Cc2ccncc2C1` [Compound 106, N-((5-(4-(3,3-difluoroazetidine-1-carbonyl)phenyl)-7-(trifluoromethyl)benzofuran-2-yl)methyl)-1H-pyrrolo[3,4-c]pyridine-2(3H)-carboxamide] are over 10 µM and over 10 µM.
In the same order, the values of `CN(Cc1cc2cc(-c3ccc(C(=O)N4CCC(F)(F)CC4)cc3)cc(-c3ccc(F)cc3)c2o1)C(=O)N1Cc2ccncc2C1` [Compound 109, N-((5-(4-(4,4-difluoropiperidine-1-carbonyl)phenyl)-7-(4-fluorophenyl)benzofuran-2-yl)methyl)-N-methyl-1H-pyrrolo[3,4-c]pyridine-2(3H)-carboxamide] are under 0.1 µM and 0.1 to 5 µM.
On to `O=C(NCc1cc2cc(-c3ccc(C(=O)N4CCC(F)(F)CC4)cn3)cc(-c3ccc(F)cc3)c2o1)N1Cc2ccncc2C1` [Compound 110, N-((5-(5-(4,4-difluoropiperidine-1-carbonyl)pyridin-2-yl)-7-(4-fluorophenyl)benzofuran-2-yl)methyl)-1H-pyrrolo[3,4-c]pyridine-2(3H)-carboxamide], for which the IC50 in the assay on Z138 cells (Homo sapiens, Z-138) is under 0.1 µM; in the assay with 3T3 cells (NIH3T3), under 0.1 µM.
For `O=C(NCc1cc2cc(-c3ccc(C(=O)N4CCC(F)(F)CC4)cc3)cc(-c3ccc(F)cc3)c2s1)N1Cc2ccncc2C1` [Compound 111, N-((5-(4-(4,4-difluoropiperidine-1-carbonyl)phenyl)-7-(4-fluorophenyl)benzo[b]thiophen-2-yl)methyl)-1H-pyrrolo[3,4-c]pyridine-2(3H)-carboxamide], the IC50 in the assay with Z138 cells (Homo sapiens, Z-138) was under 0.1 µM; in the assay on 3T3 cells (NIH3T3), over 10 µM.
In the same order, the values of `Nc1ccc(CNC(=O)NCc2cc3cc(-c4ccc(C(=O)N5CCC(F)(F)CC5)cc4)cc(-c4ccc(F)cc4F)c3o2)cn1` [Compound 112, 1-((6-aminopyridin-3-yl)methyl)-3-((7-(2,4-difluorophenyl)-5-(4-(4,4-difluoropiperidine-1-carbonyl)phenyl)benzofuran-2-yl)methyl)urea] are under 0.1 µM and 0.1 to 5 µM.
For `Nc1ccc(CNC(=O)NCc2cc3cc(-c4ccc(C(=O)N5CCC(F)(F)CC5)cc4)cc(C(F)(F)F)c3o2)cn1` [Compound 113, 1-((6-aminopyridin-3-yl)methyl)-3-((5-(4-(4,4-difluoropiperidine-1-carbonyl)phenyl)-7-(trifluoromethyl)benzofuran-2-yl)methyl)urea], in that order: over 10 µM and over 10 µM.
For `Nc1ccc(CNC(=O)NCc2cc3cc(-c4ccc(C(=O)N5CCC(F)(F)CC5)cc4)cc(-c4ccc(F)cc4)c3s2)cn1` [Compound 114, 1-((6-aminopyridin-3-yl)methyl)-3-((5-(4-(4,4-difluoropiperidine-1-carbonyl)phenyl)-7-(4-fluorophenyl)benzo[b]thiophen-2-yl)methyl)urea], in that order: 5 to 10 µM and over 10 µM.
Consider `Nc1cc2c(cn1)CN(C(=O)NCc1cc3cc(-c4ccc(C(=O)N5CCC(F)(F)CC5)cc4)cc(-c4ccc(F)cc4)c3o1)C2` [Compound 115, 6-amino-N-((5-(4-(4,4-difluoropiperidine-1-carbonyl)phenyl)-7-(4-fluorophenyl)benzofuran-2-yl)methyl)-1H-pyrrolo[3,4-c]pyridine-2(3H)-carboxamide], for which the IC50 was under 0.1 µM with Z138 cells (Homo sapiens, Z-138) and 0.1 to 5 µM in the assay on 3T3 cells (NIH3T3).
In the same order, the values of `Nc1ccc(CNC(=O)NCc2cc3cc(-c4ccc(C(=O)N5CCC(F)(F)CC5)cn4)cc(-c4ccc(F)cc4)c3o2)cn1` [Compound 116, 1-((6-aminopyridin-3-yl)methyl)-3-((5-(5-(4,4-difluoropiperidine-1-carbonyl)pyridin-2-yl)-7-(4-fluorophenyl)benzofuran-2-yl)methyl)urea] are under 0.1 µM and 0.1 to 5 µM.
In the same order, the values of `Nc1ccc(CNC(=O)NCc2cc3cc(-c4ccc(C(=O)N5CC(F)(F)C5)cc4)cc(C(F)(F)F)c3o2)cn1` [Compound 117, 1-((6-aminopyridin-3-yl)methyl)-3-((5-(4-(3,3-difluoroazetidine-1-carbonyl)phenyl)-7-(trifluoromethyl)benzofuran-2-yl)methyl)urea] are 5 to 10 µM and over 10 µM.
In the same order, the values of `O=C(NCc1ccc(-c2ccc(-c3ccc(C(=O)N4CCC(F)(F)CC4)cc3)cc2-c2ccc(F)cc2)o1)N1Cc2ccncc2C1` [Compound 120, N-((5-(4-(4,4-difluoropiperidine-1-carbonyl)-4″-fluoro-[1,1′:3′,1″-terphenyl]-4′-yl)furan-2-yl)methyl)-1,3-dihydro-2H-pyrrolo[3,4-c]pyridine-2-carboxamide] are under 0.1 µM and over 10 µM.
`O=C(NCC1Cc2cc(-c3ccc(C(=O)N4CCC(F)(F)CC4)cc3)cc(-c3ccc(F)cc3)c2O1)N1Cc2ccncc2C1` (stereo not shown) [Compound 122, N-((5-(4-(4,4-difluoropiperidine-1-carbonyl)phenyl)-7-(4-fluorophenyl)-2,3-dihydrobenzofuran-2-yl)methyl)-1,3-dihydro-2H-pyrrolo [3,4-c]pyridine-2-carboxamide]: the IC50 was under 0.1 µM in the assay with Z138 cells (Homo sapiens, Z-138) and under 0.1 µM in the assay with 3T3 cells (NIH3T3).
Turning to `Nc1ccc(CNC(=O)NCC2Cc3cc(-c4ccc(C(=O)N5CCC(F)(F)CC5)cc4)cc(-c4ccc(F)cc4)c3O2)cn1` (stereo not shown) [Compound 123, 1-((6-aminopyridin-3-yl)methyl)-3-((5-(4-(4,4-difluoropiperidine-1-carbonyl)phenyl)-7-(4-fluorophenyl)-2,3-dihydrobenzofuran-2-yl)methyl)urea], the IC50 is under 0.1 µM in the assay with Z138 cells (Homo sapiens, Z-138) and 0.1 to 5 µM in the assay on 3T3 cells (NIH3T3).
With `Nc1ccc(CNC(=O)NCc2ccc(-c3ccc(-c4ccc(C(=O)N5CCC(F)(F)CC5)cc4)cc3-c3ccc(F)cc3)o2)cn1` [Compound 125, 1-((6-aminopyridin-3-yl)methyl)-3-((5-(3-(4-fluorophenyl)-4′-(4,4-difluoropiperidine-1-carbonyl)biphenyl-4-yl)furan-2-yl)methyl)urea], the IC50 with Z138 cells (Homo sapiens, Z-138) was under 0.1 µM; in the assay with 3T3 cells (NIH3T3), over 10 µM.

The IC50 is the concentration that inhibits the measured activity by half.
